# Test results: patent US20130197043A1, “USE OF THE FETAL REPROGRAMMING OF A PPAR AGONIST” (SNU R&DB FOUNDATION, priority 2010, published 2013)
# Columns and labels:
# [1] = Maternal treatment: side effects, fetal body weight, growth, skeleton staining; assay type: in vivo, mice
# Experimental: The present inventors used a method of administering a PPAR δ agonist to a pregnant mother (maternal treatment) in order to investigate the role of fetal reprogramming of PPAR δ during mammalian development. For the fetal reprogramming, the PPAR δ agonist was orally administered to pregnant mice at a concentration of 10 mg/kg every day, and a specific experiment method was summarized in FIG. 1.
# Fertile female mice and male mice were bred, and then pregnancy or not was checked by plug confirmation. CMDD1111 was orally administered to pregnant female mice at a concentration of 10 mg/kg once per day every day for six weeks (gestation and lactation periods). Side effects due to the administered material were not observed during the gestation period. The weight of a fetus group administered with vehicle during the gestation period was 1.33±0.11 g, and the weight of a fetus group administered with CMDD1111 was 1.37±0.09 g. The weight difference between the two groups was not shown (FIG. 3). In addition, growth inhibition or promotion due to the administered material was not observed in the comparison results of growth rate of fetus for 3 weeks (FIG. 4). There was no difference in body weight between the two groups as adults (FIG. 5). Deformity due to the administered material was not observed in the skeleton staining results using Alizaren red S and Alician blue dye (FIG. 6).
# [2] = system: slow muscle fibers in the gastrocnemius muscle; assay: Muscle fiber type analysis (muscle colour, metachromatic staining, slow type MHC immunostaining); assay type: in vivo, mice
# Source text: The slow muscle fiber has a lot of myoglobin, which is oxygen transfer protein, and thus appears redder than the fast muscle. When the skin of the fetus was removed and the muscle thereof was observed, it may be seen that administered mice group had redder muscle (FIGS. 7A and 7B). In order to confirm whether or not slow muscle fiber generation was increased due to the administration material (CMDD1111), hind legs thereof were resected and then frozen in OCT. Frozen muscle tissues were cut into […] sections by using a freezing cryotome, and mounted on slides, which was then subjected to metachromatic staining. The slow muscle fiber was stained darker blue than the fast muscle by the metachromatic staining. […] Muscle fibers may be discernable even by immunostaining using an isoform antibody of the myosin heavy chain (MHC). The present inventors conducted immunostaining using the slow type MHC in order to confirm whether or not slow muscle fibers were increased by the administration material (CMDD1111).
# [3] = system: gene expression in gastrocnemius muscle; assay: Gene expression analysis using microarray; assay type: in vivo, mice
# Source text: As for an animal, the gastrocnemius muscle of 3-week old mice fetal-reprogrammed by PPAR δ agonist (CMDD1111) was resected, and then total RNA was extracted by using the Trizol reagent (Gibco). The isolated RNA was subjected to quantitative and purity verification processes, and then used for gene expression analysis using a Mouse 430 2.0 (Affimatrix) chip.
# [4] = system: gene expression in muscle; assay: Gene expression analysis using real-time PCR in fetal-reprogrammed mice; assay type: in vivo
# Experimental: A gene expression analysis experiment using the real-time PCR was conducted to further verify Miroarray analysis results. As for mouse group subjected to fetal reprogramming by administration of PPAR δ agonist (CMDD1111) during a muscular development period, there were increases in expression of core regulators for fatty acid oxidation and thermogenesis, such as carnitine palmitoyl transferase 1a (CPT-1a: 1.5 fold), uncoupling protein 3 (UCP3: 4.2 fold), acyl Co-A synthetase (ACSL: 1.4 fold), acyl Co-A dehydrogenase (ACAD10: 2.0 fold), and NDUFA12 (1.3 fold). In addition, there was a remarkable increase in expression of Adiponectin (ADIPOQ: 2.5 fold), which are commonly expressed in the slow muscle fiber and has been known to increase fatty acid oxidation to improve diabetes (FIG. 9).
# [5] = system: mice subjected to fetal reprogramming; assay: Body weight gain on high-fat feedstuff of fetal-reprogrammed mice; assay type: in vivo; conditions: 13-week old mice, 35% fat feedstuff, 84 days
# Source text: Lipometabolism has deep correlation with the occurrence of obesity and diabetes. Therefore, the present inventors checked the fetal reprogramming effect of PPAR δ on the occurrence of metabolic syndrome. The control group and administration group of 13-week old mice were fed with high-fat feedstuff (fat content: 35%) over a total of 84 days while being weighed once per week. As a result, it may be seen that, the body weight gain was suppressed by 8% in the mice subjected to fetal reprogramming by PPAR δ agonist compound (CMDD1111) as compared with the control group, as shown in FIG. 18.
# [6] = microarray, gastrocnemius muscle, 3-week old mice
# [7] = fetal-reprogrammed mouse muscle
structure (smiles),measurement,setting,value
Cc1cc(SC(Cc2ccccc2)c2sc(-c3ccc(C(F)(F)F)cc3)nc2C)ccc1OCC(=O)O (stereo not shown) [CMDD1111],growth inhibition or promotion (growth rate of fetus),[1]; 3 weeks,not observed
same,deformity in skeleton staining,[1]; Alizaren red S and Alician blue dye,not observed
same,body weight versus vehicle group,[1]; as adults,no difference
same,side effects due to the administered material,"[1]; gestation period, 10 mg/kg oral once per day",not observed
same,weight of fetus group,"[1]; immediately after birth, mother 10 mg/kg during gestation",1.37 ± 0.09 g
same,muscle colour after skin removal,"[2]; fetal reprogramming, maternal 10 mg/kg",redder muscle
same,"muscle fibers responsive to slow type MHC, immunostaining",[2]; gastrocnemius muscle,increased
same,"slow (dark blue) muscle fibers, metachromatic staining",[2]; gastrocnemius muscle,increasingly generated
same,"expressions of genes commonly expressed in the heart muscle (RYR2, ATP2A2, PLN)",[3]; fetal-reprogrammed mouse group,remarkably increased
same,"expression of ATPase, Ca2+ transporting (SERCA)",[3]; [6],1.4 fold
same,expression of CamIIb,[3]; [6],1.4 fold
same,expression of CamIId,[3]; [6],1.8 fold
same,expression of HDAC4 (decrease),[3]; [6],−1.5 fold
same,expression of Mef2a,[3]; [6],1.4 fold
same,expression of PPARγ coactivator 1a,[3]; [6],1.7 folds
same,expression of Troponin I,[3]; [6],3.2 fold
same,expression of Troponin T2,[3]; [6],2.3 fold
same,expression of acyl CoA dehydrogenase (ACAD),[3]; [6],1.7 fold
same,expression of acyl CoA synthetase (ACSL),[3]; [6],1.5 fold
same,expression of carnitine palmitoyl transferase 1a (CPT-1a),[3]; [6],1.4 fold
same,expression of cytochrome 8a (COX8A),[3]; [6],1.7 fold
same,expression of myosin binding protein C3 (MYBPC3),[3]; [6],2.8 fold
same,expression of myosin heavy chain 6 (Myh6),[3]; [6],2.7 fold
same,expression of myosin light chain 7 (Myl7),[3]; [6],2.9 fold
same,expression of pantothenate kinase 1 (PANK1),[3]; [6],2.4 fold
same,expression of phospholamban (PLN),[3]; [6],2.8 fold
same,expression of ryanodine receptor 2 (RYR2),[3]; [6],2.8 fold
same,expression of ryanodine receptor 3 (RYR3),[3]; [6],2.0 fold
same,expression of ubiquinone,[3]; [6],2.0 fold
same,expression of uncoupling protein 2 (UCP2),[3]; [6],1.5 fold
same,expression of uncoupling protein 3 (UCP3),[3]; [6],2.3 fold
same,expression of Adiponectin (ADIPOQ),[4]; [7],2.5 fold
same,expression of CaMKII B,[4]; [7],4.5 fold
same,expression of CaMKII D,[4]; [7],3.2 fold
same,"expression of HDAC4, decreased by",[4]; [7],0.6 fold
same,expression of NDUFA12,[4]; [7],1.3 fold
same,expression of PGC-1α,[4]; [7],1.6 fold
same,expression of acyl Co-A dehydrogenase (ACAD10),[4]; [7],2.0 fold
same,expression of acyl Co-A synthetase (ACSL),[4]; [7],1.4 fold
same,expression of carnitine palmitoyl transferase 1a (CPT-1a),[4]; [7],1.5 fold
same,expression of uncoupling protein 3 (UCP3),[4]; [7],4.2 fold
same,expression of ATP2A2,[4]; versus control group,2.2 fold
same,expression of MYH6,[4]; versus control group,6.8 fold
same,expression of My17,[4]; versus control group,4.8 fold
same,expression of RYR2,[4]; versus control group,2.2 fold
same,expression of RYR3,[4]; versus control group,3.6 fold
same,expression of TNNI3,[4]; versus control group,5.8 fold
same,expression of phospholamban,[4]; versus control group,3.2 fold
same,body weight gain suppression versus control,[5],8%
